# Where no end group is shown, it is not given here. TAMRA = 5(6)-carboxytetramethylrhodamine
# Experiments:
# [1] = system: human microvascular endothelial cells (HMVECs); experiment: Endothelial cell proliferation assay (MTT or ATP lite); format: cell-based; details: EGF, VEGF165 5 ng/mL or FGF-2 3 ng/mL as single stimulus
# Protocol: The ability of the CXCL9-derived peptides to inhibit growth factor-induced proliferation of endothelial cells was assessed. HMVECs were seeded at 5 × 10^3 cells/well in EBM™-2 medium containing 1% (v/v) FCS (proliferation medium). After settling of the cells, they were stimulated with EGF, VEGF165 (both 5 ng/mL) or FGF-2 (3 ng/mL) as a single stimulus or in combination with CXCL9(86-103) or CXCL9(74-103) at 0.3 or 3 µM in proliferation medium or left untreated. HMVECs were also treated with 0.3 or 3 µM of CXCL9(74-103) or 3 µM of CXCL9(86-103) alone to assess the effect of CXCL9-derived peptide treatment on spontaneous proliferation. After 3 to 4 days, a 3-(4,5-dimethylthiazol-2-yl)-2,5-diphenyl tetrazolium bromide (MTT) or ATP lite assay was performed. The ATP lite assay was performed according to the manufacturer’s instructions (Perkin Elmer, Waltham, MA). When MTT was used as substrate, the medium was replaced with 200 µL of MTT solution (RPMI without phenol red containing 0.4 g/L MTT) and the cells were incubated at 37 °C and 5% CO2 in the dark for 4 hours. Then, the MTT solution was discarded and the formed formazan crystals were dissolved in 200 µL acidic propanol [0.04 M HCl, 0.1% (v/v) NP-40 in isopropanol] under continuous shaking in the dark for 10 min. The optical densities were measured at 570 nm and 630 nm (reference wavelength).
# [2] = system: human microvascular endothelial cells (HMVECs); experiment: xCELLigence chemotaxis assay (HMVEC migration); format: cell-based; details: EGF 10 ng/mL, FGF-2 30 ng/mL or VEGF165 10 ng/mL in lower chamber
# Protocol: To evaluate the effect of the CXCL9-derived peptides on growth factor-induced endothelial cell migration, the xCELLigence® real-time cell analyzer (RTCA DP) system (ACEA Biosciences, Inc.; San Diego, CA, USA) was used. First, 160 µL MCDB131 medium (Gibco) supplemented with 0.4% (v/v) FCS (control medium) or 160 µL control medium with 30 ng/mL FGF-2, 10 ng/mL VEGF165 or 10 ng/mL EGF were added to the lower chamber of a cell invasion/migration (CIM)-Plate (ACEA Biosciences, Inc.). After assembly of the lower and upper chamber, 50 µL of serum-free MCDB131 medium was added in the upper wells. Following equilibration of the plate at 37 °C for 1 h, HMVECs were added in the upper chamber at 4 × 10^4 cells in 100 µL/well. CXCL9(74-103) or CXCL9(86-103) was added together with the cells in the upper compartment at a concentration of 0.3 or 3 µM. The assembled CIM-Plate was left at room temperature for 30 min to allow the cells to settle onto the membrane. Finally, the plate was placed in the instrument at 37 °C to monitor cell migration for 15 h. Cell migration from one compartment to the other was recorded (one recording every minute) as changes in electrical impedance. These changes were converted into cell indices, as a measure of cell migration.
# phospho-ERK1/2 = experiment: Signal transduction assay, EGF-induced ERK phosphorylation in HMVECs (ELISA); format: cell-based, human; details: EGF 10 ng/mL, 15 min, compared to control (100%), n ≥ 3
# Protocol: HMVECs and MECs were seeded in 6-well plates at 1.25 × 10^5 cells/well in their respective culture medium. Once the cell density reached 70–80% confluency, the cells were starved in serum-free medium overnight. Fifteen minutes prior to stimulation, cells were incubated with various concentrations of CXCL9(74-103) or CXCL9(86-103) in 0.5% (v/v) BSA in MCDB131 or DMEM medium (assay medium for HMVECs and MECs, respectively) at 37 °C. HMVECs and MECs were stimulated with assay medium alone or supplemented with 10 ng/mL EGF or 5 ng/mL murine VEGF165 at 37 °C for 15 or 5 min, respectively. Then, the cells were placed on ice, washed with ice-cold PBS and 90 µL of lysis buffer [1% (v/v) protease inhibitor cocktail, phosphatase inhibitor cocktail 2 and 3 (all Sigma-Aldrich) in 1 mM ethylenediaminetetraacetic acid (EDTA), 0.5% (v/v) Triton™ X-100, 5 mM NaF, 6 M urea in PBS] was added per well. […] The amount of phospho-ERK1/2 in the cell lysates was determined using an ERK1 (Thr202/Tyr204)/ERK2 (Thr185/Tyr187) ELISA duoset (R&D Systems) according to the manufacturer’s instructions. The amount of phosphorylated ERK was normalized to the total protein content in the samples measured by the Pierce™ bicinchoninic acid (BCA) protein assay kit (Thermo Fisher Scientific).
# HMVEC spheroids = experiment: Spheroid sprouting assay; format: cell-based, human; details: FGF-2 10 ng/mL, 16 hours
# Protocol: A 1:5 mixture of endothelial cells (4 × 10^4 cells/mL) and methylcellulose (Sigma-Aldrich, Saint Louis, MO, USA; 12 mg/mL in EBM™-2 basal medium) in EBM™-2 cell culture medium was prepared. Drops of 1 × 10^3 HMVECs were plated on a petri dish and allowed to form single spheroids in hanging droplets at 37 °C, 5% CO2 for 24 h. Spheroids were collected, sedimented by centrifugation and resuspended in a mixture of 24 mg/mL methylcellulose in basal EBM™-2, 1 mg/mL collagen type I (BD Biosciences, San Jose, CA, USA), 2.5 mg/mL NaHCO3 and 10 mM NaOH. The suspension was plated in a 96-well plate and the collagen was allowed to polymerize at 37 °C, 5% CO2 for 30 min. Spheroids were left untreated or stimulated with 0.3 or 3 µM of CXCL9(74-103) or 3 µM of CXCL9(86-103) for 15 min prior to addition of 10 ng/mL FGF-2 or 10 ng/mL EGF in EBM™-2 + 3% (v/v) FCS. In some experiments, HMVECs were pretreated with heparinase II (vide infra). After 16 hours, spheroid sprouting was assessed with an inverted Axiovert 200M microscope (Zeiss, Germany) through a 10× objective. The average number of sprouts was calculated and the average sprout length per spheroid was measured using Fiji software.
# Sprouting experiments examining the dependency on HS binding for the inhibitory action of CXCL9(74-103) were performed as described above (vide supra). […]
# [3] = system: FGF-2-induced angiogenesis, C57BL/6 mice; experiment: In vivo angiogenesis Matrigel plug assay; design: species or system mouse; details: 180 ng FGF-2 alone, day 7
# Protocol: Six-to-eight-week-old female C57BL/6 mice were anesthetized with a mixture of 2.5 mg/mL xylazine (V.M.D, Inovet, Arendonk, Belgium) and 37.5 mg/mL ketamine (Dechra, Northwich, UK) in PBS by i.p. injection. A vertical dorsal incision was made and an ALZET osmotic pump (model 1007D, DURECT Corporation, Cupertine, CA, USA) filled with 400 µg/100 µL CXCL9(74-103) or 100 µL PBS was subcutaneously (s.c.) implanted. The incision was closed with a surgical suture. Growth factor-reduced Matrigel (Corning Matrigel Growth Factor (GFR) Basement Membrane Matrix, Phenol Red-Free, LDEV-Free; Corning Life Sciences, Amsterdam, The Netherlands) was s.c. injected in the dorsal flank forming a firm plug (600 µL/plug). The Matrigel was either injected as such (control plugs) or supplemented with 300 µg CXCL9(74-103) and/or 180 ng FGF-2. Seven days later, the mice were sacrificed. Thirty minutes before sacrifice, the mice were i.v. injected with 200 µL (25 mg/kg) FITC-labeled 2000 kDa dextran (Sigma-Aldrich) to quantify vessel formation in the Matrigel plugs. Blood was collected through cardiac puncture into heparinized tubes containing 20 µL heparin (5.000 IE/mL, Leo Pharma, Ballerup, Denmark). The blood was centrifuged at 200 g and 4 °C for 10 min, whereafter the supernatant was centrifuged at 3000 g and 4 °C for 10 min. The collected plasma was stored away from light at 4 °C until analysis. The Matrigel plugs were removed and enzymatically and mechanically digested in 1.2 mL dispase (Corning Life Sciences) using an incubation at 37 °C for 1.5 h and the gentleMACS™ Dissociator (Miltenyi Biotec, Bergisch Gladbach, Germany). The digested Matrigel plugs were filtered through a 70 µm cell strainer, washed with 1.5 mL FACS buffer [2% (v/v) FCS + 2 mM EDTA in PBS] and centrifuged at 300 g and 4 °C for 7 min. The supernatant (SN) was centrifuged again at 300 g and 4 °C for 7 min and the SN was retained away from light at 4 °C until analysis. The pellet was resuspended in 1 mL FACS buffer, the cells were counted and used for flow cytometry. The antibodies used to identify endothelial cells were anti-mouse CD45-APC (clone 30-F11, eBioscience, Thermo Fisher Scientific), anti-mouse CD146-PE (clone ME-9F1) and anti-mouse Pan-endothelial Cell Antigen-BV711 (clone MECA-32) antibodies (both BD Biosciences). Mice experiments were approved by the Ethical Committee of KU Leuven (project number P199/2018).
# [4] = system: cell surface HS on HMVECs; experiment: Cellular HS binding of TAMRA-labeled CXCL9(74-103), flow cytometry; design: species or system human; details: 1 representative of 3 experiments
# Protocol: CXCL9(74-103) binding to cellular HS was assessed via flow cytometry. HMVECs were either left untreated or incubated with 0.75 U/mL heparinase II (Sigma-Aldrich) at 37 °C for 2 h. Cells were harvested and left at room temperature for 1 h to recuperate, they were then placed on ice and centrifuged. After centrifugation (300 g, 4 °C, 7 min) and resuspension in PBS, 1 × 10^5 cells per condition were stained with 3, 0.6 or 0.12 nM TAMRA-labeled CXCL9(74-103). To verify downregulation of HS expression, cells were stained with mouse anti-HS Ab (clone F58-10E4, Cat No 370255-S; Amsbio, Abingdon, UK) and R-PE goat anti-mouse IgM Ab (Cat No 115-116-075; Jackson ImmunoResearch, Westgrove, PA, USA). Flow cytometric analysis was performed using the BD LSRFortessa™ X-20 flow cytometer and FlowJo software (both BD Biosciences).
Substance,enhancement of proliferation by growth factor alone [1],enhancement of migration by growth factor alone [2],phospho-ERK content (phospho-ERK1/2) [%],sprouting in response to FGF-2 alone (HMVEC spheroids),"CD146+MECA-32+ cell population, FGF-2 compared to control [3] [fold]","fluorescence ratio, FGF-2 plug compared to control [3]","number of cells inside plug, FGF-2 compared to control [3] [fold]","binding to untreated HMVECs ([4]; 3, 0.6 or 0.12 nM TAMRA-labeled peptide)","binding to heparinase II-treated HMVECs ([4]; heparinase II 0.75 U/mL, 37 °C, 2 h, 3, 0.6 or 0.12 nM)"
"EGF: human recombinant EGF (R&D Systems), stimulus",significant enhancement of proliferation,significant enhancement of endothelial cell migration,247,–,–,–,–,–,–
"FGF-2: human recombinant FGF-2 (R&D Systems), stimulus",significant enhancement of proliferation,significant enhancement of endothelial cell migration,–,pronounced endothelial sprouting,~3,doubled the fluorescence ratio compared to the control,~3,–,–
"TAMRA-labeled CXCL9(74-103): CXCL9(74-103) fluorescently labeled at the NH2-terminus with 5(6)-carboxytetramethylrhodamine ({TAMRA}-KKKQKNGKKHQKKKVLKVRKSQRSRQKKTT; UniProt Q07325 96-125, looked up, fragment)",–,–,–,–,–,–,–,bound CXCL9(74-103) in a concentration-dependent manner,bound CXCL9(74-103) less efficiently compared to cells with intact HS

# Reference: paper PMC8534003, “The Chemokine-Based Peptide, CXCL9(74-103), Inhibits Angiogenesis by Blocking Heparan Sulfate Proteoglycan-Mediated Signaling of Multiple Endothelial Growth Factors” (Cancers, 2021)
